From PubChem BioAssay AID463199 (Broad Institute, 2010) come the findings set out here.

The structures appear in SMILES notation. Calls of active or inactive are those of the source.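 The calls were made as follows: active = AC50, the dose giving half-maximal effect, exceeds a fixed cutoff for a compound that rescues yeast growth under heat; inactive = the rest, inconclusive results apart.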

The subject of this experiment is S. cerevisiae Burl-1 ts mutant growth, BacTiter-Glo, 38.5C 24 h. As to the kind of experiment: growth induction of Burl-1 ts yeast mutant, dose response, counter-screen for SUMOylation pathway inhibitor project, whole organism, S. cerevisiae, luminescence (AID 463199).
As to `CCCCCCCCCCOC(=O)Cn1c(COc2ccccc2OC)[n+](C)c2ccccc21`, the AC50 is > 42 µM (inactive). On to `O=C(c1cc(-c2ccc(Cl)c(Cl)c2)on1)N1CCN(c2ccccc2)CC1`, for which the AC50 is > 42 µM (inactive). The same measure for `CC(=O)Nc1nn(C)c2nc3ccc(C)cc3cc12`: > 42 µM (inactive); for `COc1ccc2c(CC(=O)Nc3ccc(OC)c(NS(=O)(=O)c4ccc(F)cc4)c3)coc2c1`: > 42 µM (inactive). For `COc1ccc(C(=O)Nn2c(SCC(=O)NCc3ccccc3)nc3ccccc3c2=O)cc1`, the AC50 was > 42 µM (inactive). As to `Cn1c(=O)c2c(ncn2CC(=O)N2CCCCCC2)n(C)c1=O`, the AC50 is > 42 µM (inactive).

Take `O=C(N/C(=C/c1ccc2c(c1)OCO2)C(=O)N1CCOCC1)c1cccs1`: the AC50 is > 42 µM (inactive). The same measure for `COc1ccc(NC2CC(=O)N(C(C)C)C2=O)cc1` (stereo not drawn): > 42 µM (inactive). The same measure for `CC1(C)Oc2ccc3ccc(=O)oc3c2/C(=C/Nc2ccc(O)cc2)C1=O`: > 42 µM (inactive); for `CCOC(=O)c1cc2c(ccn2-c2ccc(F)cc2)n1CC(=O)N1CCN(C(=O)c2ccco2)CC1`: > 42 µM (inactive). On to `COC(=O)c1ccccc1NC(=O)c1cnn2c(C)cc(C)nc12`, for which the AC50 is > 42 µM (inactive). In the case of `CCCC(=O)Oc1c(S(=O)(=O)c2ccc(C)cc2)c(C)nn1C(C)(C)C`, the AC50 was > 42 µM (inactive). As to `C=CCN1C(=O)/C(=C\c2ccc(C)cc2)N=C1SCC(=O)NCCC`, the AC50 is > 42 µM (inactive). Then `CC(C)c1ccc2c(c1)CCC1C(C)(CN)CCCC21C` (stereo not drawn), with > 42 µM (inactive). Then `O=C(CSc1nnc(CNC(=O)c2ccccc2)o1)NCc1ccco1`, with > 42 µM (inactive). In the case of `Cc1c(C(=O)N2CCCC2)c(S(=O)(=O)Nc2cccc(Br)c2)c(C)n1C`, the AC50 is > 42 µM (inactive).

`COc1cccc(-c2nn(-c3ccccc3)cc2/C=C(/NC(=O)c2ccccc2)C(=O)O)c1`: the AC50 was > 42 µM (inactive).

Regarding `O=Cc1cn(Cc2ccccc2F)c2ccccc12`, the AC50 is > 42 µM (inactive). The same measure for `N=c1sccn1CC(=O)Nc1cccc(S(N)(=O)=O)c1`: > 42 µM (inactive). Turning to `O=C1N=C(N2CCN(c3ccccc3)CC2)SC1Cc1ccccc1` (stereo not drawn), the AC50 was > 42 µM (inactive). Then `O=C(Nc1ncccn1)c1ccc(C(F)(F)F)cc1`, with > 42 µM (inactive); and `CC1(C)C2CC=C(/C=N/NC(=S)Nc3cccnc3)C1C2` (stereo not drawn), with > 42 µM (inactive). Consider `Cc1c(O)ccc(C(=O)CN2C(=O)c3ccccc3C2=O)c1O`, for which the AC50 is > 42 µM (inactive). For the compound `CN=C(Nc1cccnc1)c1ccccc1`, the AC50 was > 42 µM (inactive).

Turning to `O=C(CSc1nnc(COc2ccccc2Cl)o1)NC(=O)NC1CCCC1`, the AC50 is > 42 µM (inactive).

Consider `O=C(NNS(=O)(=O)c1c(F)cc(F)c(Cl)c1F)C12CC3CC(CC(C3)C1)C2`, for which the AC50 was > 42 µM (inactive). The same measure for `Cc1ccc(NC(=O)C(=O)NCC2CCCN2S(=O)(=O)c2cccs2)cc1` (stereo not drawn): > 42 µM (inactive); for `COc1cc2c(cc1OC)C(c1ccccc1C)CC(=O)N2` (stereo not drawn): > 42 µM (inactive). The same measure for `COc1ccc(C(C)=O)cc1CN(c1ccccc1OC)S(=O)(=O)c1cccs1`: > 42 µM (inactive); for `CCCCc1n[nH]c(=S)n1Cc1ccc(C)cc1`: > 42 µM (inactive). As for `CCOC(=O)C1CCN(CC(O)COc2ccc(C(C)(C)C)cc2)CC1` (stereo not drawn), the AC50 is > 42 µM (inactive).

Take `COc1ccc(-c2c(C)nn3c(C)cc(C)nc23)cc1`: the AC50 was > 42 µM (inactive). For the compound `CN/C(=C/[N+](=O)[O-])NCCSCc1ccc(CN(C)C)o1`, the AC50 is > 42 µM (inactive). Then `COc1ccc(/C=N/NC(=O)c2c(C)nc3ccccn23)cc1[N+](=O)[O-]`, with > 42 µM (inactive); and `CC(C)c1nc2n[nH]c(N)c2c2c1CCC2`, with > 42 µM (inactive); and `S=C(Nc1ccc(Cl)cc1)N1CCN(Cc2ccccc2)CC1`, with > 42 µM (inactive). The same measure for `CCc1ccccc1NC(=S)NNC(=O)c1ccccc1Cl`: > 42 µM (inactive).

With `COc1ccc(NC(=O)Cn2c(=O)cnc3ccccc32)cc1S(=O)(=O)N1CCCCC1`, the AC50 was > 42 µM (inactive). In the case of `COC(=O)CCC(=O)OC1(C)C(=O)C=C2C=C(C3CC3)N(Cc3ccc4c(c3)OCO4)C=C2C1=O` (stereo not drawn), the AC50 was > 42 µM (inactive). Then `Cc1ccc2nc(SCC(=O)Nc3cccc(S(N)(=O)=O)c3)[nH]c2c1`, with > 42 µM (inactive); and `COc1ccccc1NC(=O)N1CCN(C(=O)Nc2ccccc2OC)CC1`, with > 42 µM (inactive). For the compound `CCOc1ccccc1N(CC(=O)Nc1ccccc1C(=O)N1CCCC1)S(C)(=O)=O`, the AC50 is > 42 µM (inactive).

As to `O=C(CSc1nc2ccc(Nc3nc(N4CCOCC4)nc(N4CCOCC4)n3)cc2s1)N1CCOCC1`, the AC50 was > 42 µM (inactive). Then `O=C(c1cc(-c2ccc(Cl)cc2)n(-c2ccc(Cl)cc2)n1)N1CCOCC1`, with > 42 µM (inactive). `Fc1cccc(F)c1-c1nc(-c2ccncc2)no1`: the AC50 was > 42 µM (inactive). The same measure for `COc1cccc(/C=C2/C(=O)NN(c3ccc(Br)cc3)C2=O)c1O`: > 42 µM (inactive); for `Nc1nnc(COc2ccc(Br)cc2Br)s1`: > 42 µM (inactive). Then `c1ccc2c(c1)[nH]c1c(N3CCN(C4CCCCC4)CC3)ncnc12`, with 39.8 µM; and `Cc1c(Cl)c([N+](=O)[O-])nn1CC(=O)NC12CC3CC(CC(C3)C1)C2`, with > 42 µM (inactive). On to `Cc1nc2ccc(NC(=O)c3ccco3)cc2s1`, for which the AC50 is > 42 µM (inactive). Then `CC(=O)Nc1ccc(S(=O)(=O)N(C)CC(=O)Nc2ccc(Br)cc2F)cc1`, with > 42 µM (inactive); and `COc1cc(/C=N/NC(=S)NCc2ccco2)cc(OC)c1OC`, with > 42 µM (inactive). Then `C/C(=N\NC(=O)c1ccc(Cl)cc1)c1cccnc1`, with > 42 µM (inactive). Then `CC1CCCCC1N=CC1=C(O)CC(C)(C)CC1=O` (stereo not drawn), with > 42 µM (inactive); and `Cc1ccc(NC(=O)NNC(=O)Cn2nc(-c3ccccc3)c(-c3ccccc3)c(C#N)c2=O)cc1`, with > 42 µM (inactive); and `CCN1CCN(C(=O)c2ccc3nc(-c4ccccc4)c(-c4ccccc4)nc3c2)CC1`, with > 42 µM (inactive). As for `COc1ccc(S(=O)(=O)N2CCCC2CNC(=O)C(=O)NCc2ccccn2)cc1` (stereo not drawn), the AC50 was > 42 µM (inactive). The same measure for `N#Cc1c(-c2ccco2)cc(-c2cccnc2)nc1N`: > 42 µM (inactive); for `Cn1cccc1CC(=O)N/N=C/c1cccc([N+](=O)[O-])c1`: > 42 µM (inactive); for `Cc1ccc(C)c(OCCCC(=O)N2CCOCC2)c1`: > 42 µM (inactive). Then `Cc1ccc(S(=O)(=O)N2[C@@H](c3ccccc3F)C(C(=O)O)=CC[C@H]2c2ccc3c(c2)OCO3)cc1`, with > 42 µM (inactive); and `O=C(c1cc(N2C(=O)C3C4CCC(C4)C3C2=O)ccc1Cl)N1CCCCCC1` (stereo not drawn), with > 42 µM (inactive); and `N#CCCN(Cc1cccnc1)C(=O)Nc1cccc(Cl)c1`, with > 42 µM (inactive).
